Results reported in US6469052B2, “Compounds for the photodecontamination of pathogens in blood” (Cerus Corporation, priority 1993, dated 2002).

Tests used:
[1] = tested on: Salmonella typhimurium TA98; assay: Ames assay (dark mutagenicity), strain TA98
Description: (§1) The second property that is important in testing a compound for use in methods of the present invention is mutagenicity. The most widely used mutagen/carcinogen screening assay is the Ames test. This assay is described by D. M. Maron and B. N. Ames in Mutation Research 113: 173 ( 1983) and a specific screen is described in detail in Example 17, below. The Ames test utilizes several unique strains of Salmonella typhimurium that are histidine- dependent for growth and that lack the usual DNA repair enzymes. The frequency of normal mutations that render the bacteria independent of histidine (i.e., the frequency of spontaneous revertants) is low. The test allows one to evaluate the impact of a compound on this revertant frequency.
(§2) In this example the compounds of the present invention are tested for their dark mutagenicity using an Ames assay. The procedures used for the Salmonella mutagenicity test as described in detail by Maron and Ames were followed exactly. Maron, D. M. and B. N. Ames, Mutation Research 113: 173 ( 1983). A brief description for each procedure is given here. The tester strains TA97a, TA98, TA100, TA102, TA1537 and TA1538 were obtained from Dr. Ames. TA97a, TA98, TA1537 and TA1538 are frameshift tester strains. TA100 and TA102 are base-substitution tester strains. Upon receipt each strain was cultured under a variety of conditions to confirm the genotypes specific to the strains.
(§3) The first tests done with the strains were to determine the range of spontaneous reversion for each of the strains. With each mutagenicity experiment the spontaneous reversion of the tester strains to histidine independence was measured and expressed as the number of spontaneous revertants per plate. This served as the background controls.
(§4) For all experiments, the pre-incubation procedure was used. In this procedure one vial of each tester strain was thawed and 20 μL of this culture was added to 6 mL of Oxoid Nutrient Broth #2. This solution was allowed to shake for 10 hours at 37° C. In the pre-incubation procedure, 0.1 mL of this overnight culture was added to each of the required number of sterile test tubes. To half of the tubes 0.5 mL of a 10% S-9 solution containing Aroclor 1254 induced rat liver extract (Molecular Toxicology Inc., Annapolis, Md.), and MgCl2, KCl, glucose-6-phosphate, NADP, and sodium phosphate buffer (Sigma, St. Louis, Mo.) were added. To the other half of the tubes 0.5 mL of 0.2M sodium phospate buffer, pH 7.4, was used in place of the S-9 mixture (the -S9 samples). Finally 0.1 mL of the test solution containing either 0, 0.1, 0.5, 1, 5, 10, 50, 100, 250, or 500 μg/mL of the test compound was added. The 0.7 mL mixture was vortexed and then pre-incubated while shaking for 20 minutes at 37° C. After shaking, 2 mL of molten top agar supplemented with histidine and biotin were added to the 0.7 mL mixture and immediately poured onto a minimal glucose agar plate (volume of base agar was 20 mL). The top agar was allowed 30 minutes to solidify and then the plates were inverted and incubated for 44 hours at 37° C. After incubation the number of revertant colonies on each plate were counted. […] (“n” represents the number of replicates performed for each data point.)
(§5) Maron and Ames (1983) describe the conflicting views with regard to the statisical treatment of data generated from the test.

HIV-1 = conditions: concentrations of 64 μM of compound or higher
Protocol: Pathogen inactivation efficiency of several compounds of the present invention was evaluated by examining the ability of the compounds to inactivate cell-free virus (HIV). Inactivation of cell-free HIV was performed as follows.
As in the R17 assay, small aliquots of the compounds listed in TABLES 10 and 11, below, at the concentrations listed in the table, were added to stock HIV-1 to a total of 0.5 mL. The stock HIV (10^5-10^7 plaque forming units/mL) was in DMEM/15% FBS. […] Controls included HIV-1 stock only, HIV-1 plus UVA only, and HIV-1 plus the highest concentration of each psoralen tested, with no UVA. Post irradiation, all samples were stores frozen at −70° C. until assayed for infectivity by a microtiter plaque assay. Aliquots for measurement of residual HIV infectivity in the samples treated with a compound of the present invention were withdrawn and cultured.
Residual HIV infectivity was assayed using an MT-2 infectivity assay. […] After 24 to 48 hours, the red fluorescence-stained microplaques were visualized by placing the plates on an 8,000 μW/cm^2 304 nm UV light box (Fotodyne, Inc., New Berlin, Wis.). The plaques were counted at a magnification of ×20 to ×25 through a stereomicroscope.

human platelets = conditions: 100 μM compound
Protocol: To measure the effects of the present compounds and methods of decontamination on platelet function using these four indicators, four samples were prepared for each compound tested, two control samples and two containing compound. Three units of human platelets were obtained from the Sacramento Blood Center, Sacramento, Calif. These were each transferred under sterile conditions to 50 ml centrifuge tubes, then aliquots of each unit were transferred into a second set of 50 ml sterile centrifuge tubes. To each centrifuge tube containing platelet concentrate (PC), an aliquot of compound stock was added to reach a final concentration of 100 μM of compound. […] The samples were pipetted gently up and down to mix. Then aliquots (either 3 ml or 8 ml) of each sample was transferred to two sterile Teflon™ Medi-bags™ (American Fluoroseal Co., Silver Springs, Md.) (presently owned by The West Company, Lionville, Pa.). Samples were treated in one of two different sized bags, having either 3 ml or 8 ml capacity. […] For each compound tested, two control samples without compound were prepared by again removing aliquots of platelet concentrate (17 ml if using an 8 ml bag, […] if using a 3 ml bag) from the same one of the first set of 50 ml centrifuge tubes from which the compound sample was drawn, and dividing into Medibags, as before. One of each pair of Medibags containing a compound, and one of each pair of control Medibags, were illuminated for 5 Joules/cm^2 on the device described in Example 1, above. Then all experimental and control Medibags were placed on a platelet shaker for storage for 5 days. The same experiments were repeated several times to obtain more statistically meaningful data, as represented by “n”, the number of data points represented, in the graphs of FIGS. 21-24, discussed below.
A Sysmex cell counter was used to measure platelet count in the platelet samples. Samples were diluted 1:3 in blood bank saline.

[2] = tested on: Salmonella typhimurium TA1537; assay: Ames assay (dark mutagenicity), strain TA1537; conditions: TA1537 in the presence of S9
Description: as §1, §2, §3, §4, §5

Cc1oc2c(C)c3oc(=O)cc(C)c3cc2c1COCCN [Compound 2, 4′-(4-amino-2-oxa)butyl-4,5′,8-trimethylpsoralen]
revertants per plate ([1]; TA98 +S9, 10 μg/plate): 24 | revertants per plate ([1]; TA98 +S9, 50 μg/plate): 35 | revertants per plate ([1]; TA98 +S9, 100 μg/plate): 53 | revertants per plate ([1]; TA98 +S9, 250 μg/plate): 69 | revertants per plate ([1]; TA98 +S9, 500 μg/plate): 63 | revertants per plate ([1]; TA98 −S9, 10 μg/plate): 28 | revertants per plate ([1]; TA98 −S9, 50 μg/plate): 52 | revertants per plate ([1]; TA98 −S9, 100 μg/plate): 39 | revertants per plate ([1]; TA98 −S9, 250 μg/plate): 29 | revertants per plate ([1]; TA98 −S9, 500 μg/plate): 6 | HIV inactivation activity compared with AMT (HIV-1): significantly more active than AMT

Cc1oc2c(C)c3oc(=O)cc(C)c3cc2c1CNCCCCN [Compound 6, 4′-(6-amino-2-aza)hexyl-4,5′,8-trimethylpsoralen]
platelet count, Day 5 treated sample versus Day 5 control (human platelets; 5 Joules/cm^2): counts equivalent to the 5 day control | platelet count compared with samples treated with light alone (human platelets; 5 Joules/cm^2, 5 days storage): higher platelet count than samples treated with light alone | revertants per plate ([1]; TA98 −S9, 10 μg/plate): 12 | revertants per plate ([1]; TA98 −S9, 50 μg/plate): 12 | revertants per plate ([1]; TA98 −S9, 100 μg/plate): 22 | revertants per plate ([1]; TA98 −S9, 250 μg/plate): 12 | revertants per plate ([1]; TA98 −S9, 500 μg/plate): 9 | concentration showing a response [2]: 50 μg/plate
